# Measured values as given in patent US8906966B2, “Medicaments containing panthenol” (priority 2006, dated 2014).
# Assays:
# Format in all cases: in vivo, human
# [1] = test system: patients treated for traumatic inflammatory conditions; assay: Pain relief following intra-articular or peri-articular injection, Example 1; settings: for Outcome: Improved (%) / Outcome: Improved n / Outcome: No change (%) / Outcome: No change n / Outcome: Not reported (%) / Outcome: Not reported n / Outcome: Temporarily improved (%) / Outcome: Temporarily improved n / Outcome: Worsened (%) / Outcome: Worsened n: 1 g dexpanthenol + 1 ml 0.1% bupivacaine intra- or peri-articular
# Experimental: 62 patients ([…]) aged 21 to 85 years were treated for traumatic inflammatory conditions. The patients were administered one or more intra-articular or peri-articular injections, i.e., into the inflamed joint or nearby area, of dexpanthenol in combination with a long acting local anesthetic [4 ml of an aqueous solution of dexpanthenol Ph Eur (equal to 1 g of dexpanthenol); 1 ml of 0.1% bupivacaine]. In terms of pain relief following injection, efficacy outcome of the treatment is shown in the table below: Injection of facet joints has previously almost invariably been done using MRI to ensure exact placing of the needle. […] By palpating the patient's back in the area of pain and spasm, there is often an area of extreme tenderness about 5 cms from the midline, indicating the site of the inflamed facet joints. If a needle is inserted at right angles into this area, it will be located in or exceedingly close to the facet joint.
# [2] = test system: patients treated for traumatic inflammatory conditions; assay: Safety and tolerability from case notes of the 62 patients, Example 1
# Experimental: 62 patients ([…]) aged 21 to 85 years were treated for traumatic inflammatory conditions. The patients were administered one or more intra-articular or peri-articular injections, i.e., into the inflamed joint or nearby area, of dexpanthenol in combination with a long acting local anesthetic [4 ml of an aqueous solution of dexpanthenol Ph Eur (equal to 1 g of dexpanthenol); 1 ml of 0.1% bupivacaine].
# Five (8%) of the 62 patients reported adverse events, including numbness and injection site pain, which resolved with time.
# inflamed joint = assay: Patient response to a program of injections into or outside the inflamed joint (description)
# Experimental: In some embodiments, a typical dose is an aqueous solution (about 2 milliliters) containing about 500 mg of panthenol (e.g., dexpanthenol) or an aqueous solution (about 4 milliliters) containing about 1000 mg of panthenol (e.g., dexpanthenol). Lower doses can also be used (e.g., 250 mg of panthenol). The aqueous solution can be injected directly into the site of the inflamed joint or outside of the joint as described herein. A program of injections is generally desirable in which dosages similar to that indicated above are given at intervals of a few days (e.g., 2, 3, 4, 5, or 6 days) to about one week. Reduced inflammation and increased freedom of movement is typically noticeable within 48 hours from the initial injection. Using the 1000 mg dose, patients have reported an estimated 80% reduction of pain after the first injection. In certain embodiments, for larger doses (e.g., ≧1000 milligrams), the active ingredient can be provided in two or more closely spaced (e.g., from about 5 minutes to about 1 hour) and smaller doses (e.g., each independently about 400, about 500, or about 600 milligrams).
# [3] = Total of all sites of complaint, n 98
# [4] = site of complaint Back (post-traumatic spondylitis), n 54
# [5] = where outcome reported, cohort of 62 patients, with bupivacaine
# [6] = of the 62 patients, numbness and injection site pain, resolved with time, with bupivacaine
smiles,measurement,setting,value
CC(C)(CO)[C@@H](O)C(=O)NCCCO [dexpanthenol],Outcome: Improved (%),[1]; [3],50.0%
same,Outcome: Improved n,[1]; [3],49 n
same,Outcome: No change (%),[1]; [3],10.2%
same,Outcome: No change n,[1]; [3],10 n
same,Outcome: Not reported (%),[1]; [3],20.4%
same,Outcome: Not reported n,[1]; [3],20 n
same,Outcome: Temporarily improved (%),[1]; [3],13.2%
same,Outcome: Temporarily improved n,[1]; [3],13 n
same,Outcome: Worsened (%),[1]; [3],6.1%
same,Outcome: Worsened n,[1]; [3],6 n
same,effectiveness of injection adjacent to the facet joint versus directly into the joint,"[1]; facet joints, injection without MRI",equally effective
same,Outcome: Improved (%),[1]; [4],55.6%
same,Outcome: Improved n,[1]; [4],30 n
same,Outcome: No change (%),[1]; [4],11.1%
same,Outcome: No change n,[1]; [4],6 n
same,Outcome: Not reported (%),[1]; [4],16.7%
same,Outcome: Not reported n,[1]; [4],9 n
same,Outcome: Temporarily improved (%),[1]; [4],11.1%
same,Outcome: Temporarily improved n,[1]; [4],6 n
same,Outcome: Worsened (%),[1]; [4],5.6%
same,Outcome: Worsened n,[1]; [4],3 n
same,Outcome: Improved (%),"[1]; site of complaint Hip, n 22",40.9%
same,Outcome: Improved n,"[1]; site of complaint Hip, n 22",9 n
same,Outcome: No change (%),"[1]; site of complaint Hip, n 22",9.1%
same,Outcome: No change n,"[1]; site of complaint Hip, n 22",2 n
same,Outcome: Not reported (%),"[1]; site of complaint Hip, n 22",22.7%
same,Outcome: Not reported n,"[1]; site of complaint Hip, n 22",5 n
same,Outcome: Temporarily improved (%),"[1]; site of complaint Hip, n 22",18.2%
same,Outcome: Temporarily improved n,"[1]; site of complaint Hip, n 22",4 n
same,Outcome: Worsened (%),"[1]; site of complaint Hip, n 22",9.1%
same,Outcome: Worsened n,"[1]; site of complaint Hip, n 22",2 n
same,Outcome: Improved (%),"[1]; site of complaint Knee, n 8",62.5%
same,Outcome: Improved n,"[1]; site of complaint Knee, n 8",5 n
same,Outcome: No change (%),"[1]; site of complaint Knee, n 8",12.5%
same,Outcome: No change n,"[1]; site of complaint Knee, n 8",1 n
same,Outcome: Not reported (%),"[1]; site of complaint Knee, n 8",25.0%
same,Outcome: Not reported n,"[1]; site of complaint Knee, n 8",2 n
same,Outcome: Temporarily improved (%),"[1]; site of complaint Knee, n 8",0 (0) %
same,Outcome: Temporarily improved n,"[1]; site of complaint Knee, n 8",0 (0) n
same,Outcome: Worsened (%),"[1]; site of complaint Knee, n 8",0 (0) %
same,Outcome: Worsened n,"[1]; site of complaint Knee, n 8",0 (0) n
same,Outcome: Improved (%),"[1]; site of complaint Other, n 14",35.7%
same,Outcome: Improved n,"[1]; site of complaint Other, n 14",5 n
same,Outcome: No change (%),"[1]; site of complaint Other, n 14",7.1%
same,Outcome: No change n,"[1]; site of complaint Other, n 14",1 n
same,Outcome: Not reported (%),"[1]; site of complaint Other, n 14",28.6%
same,Outcome: Not reported n,"[1]; site of complaint Other, n 14",4 n
same,Outcome: Temporarily improved (%),"[1]; site of complaint Other, n 14",21.4%
same,Outcome: Temporarily improved n,"[1]; site of complaint Other, n 14",3 n
same,Outcome: Worsened (%),"[1]; site of complaint Other, n 14",7.1%
same,Outcome: Worsened n,"[1]; site of complaint Other, n 14",1 n
same,patients who said that their condition had worsened,[1]; [5],less than 10%
same,share of all patients who benefited from pain relief,[1]; [5],about three-quarters
same,safety and tolerability,"[2]; injections into the joint or nearby area, in combination with bupivacaine, 62 patients",generally safe and well tolerated
same,patients who reported adverse events (%),[2]; [6],8%
same,patients who reported adverse events (number),[2]; [6],Five
CC(C)(CO)[C@@H](O)C(=O)NCCCO [panthenol],reduction of pain reported by patients,"inflamed joint; 1000 mg dose, after the first injection, estimated",~80%
same,time until reduced inflammation and increased freedom of movement is noticeable,"inflamed joint; from the initial injection, typical doses 500 mg or 1000 mg in aqueous solution",≤ 48 h
